Assay results published in US6476077B1, “N-(2-phenyl-4-amino-butyl)-1-naphthamides as neurokinin-1 receptor antagonists” (Astrazeneca AB, priority 1999, dated 2002).

Target: T1, NK1 receptor (Oryctolagus cuniculus, UniProt G1SEI7)
T1 construct: The pulmonary arteries are isolated from the rest of the tissues and cut in half to serve as pairs; from tissue; host or cells: rabbit pulmonary artery rings (male New Zealand white rabbit)
Test: Rabbit Pulmonary Artery: NK1 in vitro functional assay (Test C)
Format: biochemical
Settings: rabbit pulmonary artery rings; antagonism of relaxation by agonist ASMSP; -log molar KB; read-out: NK1 pKb (Test C) (converted)
Procedure: Rabbit Pulmonary Artery: NK1 in vitro functional assay (Test C)
The ability of a Compound of the invention to antagonize the action of the agonist Ac-[Arg^6, Sar^9, Met(O2)^11]
Male New Zealand white rabbits are euthanized via i.v. injection into an ear vein with 60 mg/kg Nembutal (50 mg/ml). Preceding the Nembutal into the vein is Heparin (1000 units/ml) at 0.0025 ml/kg for anticoagulant purposes. The chest cavity is opened from the top of the rib cage to the sternum and the heart, lungs and part of the trachea are removed. The pulmonary arteries are isolated from the rest of the tissues and cut in half to serve as pairs.
The segments are suspended between stainless steel stirrups, so as not to remove any of the endothelium, and placed in water-jacketed (37.0° C.) tissue baths containing physiological salt solution of the following composition (mM): NaCl, 118.0; KCl, 4.7; CaCl2, 1.8; MgCl2, 0.54; NaH2PO4, 1.0; NaHCO3, 25.0; glucose, 11.0; indomethacin, 0.005(to inhibit cyclooxygenase); and dl-Propranolol, 0.001(to block β receptors); gassed continuously with 95% O2-5% CO2. Responses are measured on a Grass polygraph via Grass FT-03 transducers and the electrical signals (data) acquired using a Mi^2 software/hardware system for subsequent conversion to measures of relaxation. […]

T1 sequence (G1SEI7 1-407): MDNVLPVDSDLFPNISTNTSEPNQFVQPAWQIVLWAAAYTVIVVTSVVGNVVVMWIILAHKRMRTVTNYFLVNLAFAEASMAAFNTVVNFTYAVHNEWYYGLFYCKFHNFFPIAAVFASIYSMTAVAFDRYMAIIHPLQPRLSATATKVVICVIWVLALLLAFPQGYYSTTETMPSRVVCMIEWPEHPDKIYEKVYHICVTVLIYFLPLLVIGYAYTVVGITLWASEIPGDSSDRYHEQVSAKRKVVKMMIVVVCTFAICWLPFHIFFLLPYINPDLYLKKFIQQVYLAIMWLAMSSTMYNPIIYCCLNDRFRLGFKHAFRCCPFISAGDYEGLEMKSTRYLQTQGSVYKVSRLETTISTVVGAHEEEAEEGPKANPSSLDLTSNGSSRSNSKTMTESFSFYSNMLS

Kb [nM]	SMILES
5.01	COc1c(C#N)cc2ccccc2c1C(=O)N(C)CC(CCN1CCOCC1)c1ccc(Cl)c(Cl)c1 (centres unmarked) [Example 4]
2	COc1c(C#N)cc2ccccc2c1C(=O)N(C)CC(CCN(C)C)c1ccc(Cl)c(Cl)c1 (centres unmarked) [Example 6]
